Tests used:
[1] = system: tau accumulated in the brain with AD; assay: In vitro autoradiography using autopsied brain tissue of Alzheimer's disease patient; type: binding, human
Description: (Evaluation 1) In Vitro Autoradiography Using Autopsied Brain Tissue of Alzheimer's Disease Patient (1) In Vitro Autoradiography
Autopsied brain tissue sections of an Alzheimer's disease (AD) patient (sections from a frontal lobe site and a temporal lobe site, 6 μm) were used, which were provided from Graduate School of Medicine, Kyoto University and National Cerebral and Cardiovascular Center Hospital. Deparaffinization treatment was performed by washing with xylene (15 min×2), ethanol (1 min×2), a 90 vol % aqueous ethanol solution (1 min×1), an 80 vol % aqueous ethanol solution (1 min×1), a 70 vol % aqueous ethanol solution (1 min×1), and purified water (2.5 min×2). A 10 vol % aqueous ethanol solution of each radioactive iodine-labeled BIP derivative compound (370 kBq/mL) obtained by the method shown in Example 7 was added thereto, and the tissue sections were incubated at room temperature for 2 hours. The tissue sections were washed with a 50 vol % aqueous ethanol solution (1 hr×1), then exposed to an imaging plate (BAS-SR2025 manufactured by Fujifilm Corp.), and analyzed using a bioimaging analyzer (bioimaging analyzer BAS-5000 manufactured by Fujifilm Corp.). Multi Gauge manufactured by Fujifilm Corp. was used in quantitative analysis.
FIGS. 5E and 5F show the results obtained using [^125I]BIP-NMe2. FIGS. 5G and 5H show the results obtained using [^125I]BIP-OMe. FIGS. 5I and 5J show the results obtained using [^125I]BIP-Me. FIGS. 5E, 5G, and 5I show the results obtained using the brain tissue section of the frontal lobe. FIGS. 5F, 5H, and 5J show the results obtained using the brain tissue section of the temporal lobe.
Tau and Aβ were immunostained using sections adjacent to the autopsied AD brain tissue sections used in autoradiography. An anti-phosphorylated tau monoclonal antibody (AT8, manufactured by Thermo Fisher Scientific Inc.) was used as a primary antibody in the immunostaining of tau, and an anti-Aβ1-42 monoclonal antibody (BC05, manufactured by Wako Pure Chemical Industries, Ltd.) was used as a primary antibody in the immunostaining of Aβ. Deparaffinization treatment was performed by washing with xylene (15 min×2), ethanol (1 min×2), a 90 vol % aqueous ethanol solution (1 min×1), an 80 vol % aqueous ethanol solution (1 min×1), a 70 vol % aqueous ethanol solution (1 min×1), and purified water (2.5 min×2). The antigens were retrieved by autoclaving (15 min) in a 0.01 mol/L citrate buffer solution (pH 6.0) and formic acid treatment (5 min). The tissue sections were washed with running water (5 min) and then washed with PBS-Tween 20 (2 min×1). The tissue sections were reacted with primary antibody solutions at room temperature for 1 hour and then washed with PBS-Tween 20 (5 min×3). The tissue sections were reacted with Histofine Simple Stain MAX-PO (MULTI) (manufactured by Nichirei Biosciences Inc.) at room temperature for 30 minutes and then washed with PBS-Tween 20 (3 min×3) and TBS (5 min×1). Finally, the tissue sections were reacted with a DAB solution at room temperature for 1 minute. The tissue sections were washed with distilled water (1 min×1) to terminate the reaction. The brain tissue sections were mounted on slides and then observed under a microscope (BZ-9000 manufactured by Keyence Corporation).
FIGS. 5A and 5B show the results obtained using the brain tissue section of the frontal lobe. FIGS. 5C and 5D show the results obtained using the brain tissue section of the temporal lobe. FIGS. 5A and 5C show the results of immunostaining with the antibody against tau. FIGS. 5B and 5D show the results of immunostaining with the antibody against Aβ.

[2] = Evaluation of in vivo radioactivity distribution in normal mouse; conditions: normal ddY male mice, tail vein; for radioactivity distribution, Blood / radioactivity distribution, Brain / radioactivity distribution, Heart / radioactivity distribution, Intestine / radioactivity distribution, Kidney / radioactivity distribution, Liver / radioactivity distribution, Lung / radioactivity distribution, Pancreas / radioactivity distribution, Spleen / radioactivity distribution, Stomach / radioactivity distribution, Thyroid gland: mean (SD)
Description: (Evaluation 2) Evaluation of In Vivo Radioactivity Distribution in Normal Mouse
Each compound of [^125I]BIP-NMe2, [^125I]BIP-OMe, and [^125I]BIP-Me synthesized according to the method shown in Example 7 was diluted with saline containing 10 vol % ethanol and 0.1 vol % Tween 80. Each radioactive iodine-labeled BIP derivative compound was administered to a group of 5-week-old ddY male mice (26 to 28 g; each group involved 5 mice) from the tail veins thereof at 19.6 to 29.4 kBq (100 μL) per mouse. After 2, 10, 30, or 60 minutes, the mice were slaughtered. After blood collection, the organs were taken out, and their weights and radioactivity were measured.
In Tables 2 to 4, the numerical values shown in the column “Time after administration” are means of % ID for the stomach and the thyroid gland and means of % ID/g for the other tissues with standard deviation (SD) shown in parenthesis.

COc1ccn2c(c1)nc1cc([125I])ccc12 [[^125I]BIP-OMe, 7-[^125I]iodo-3-methoxypyrido[1,2-a]benzimidazole]
radioactivity accumulation in the brain tissue section of the frontal lobe ([1]; AD patient autopsied brain section, frontal lobe, 370 kBq/mL, 2 hours room temperature): none | radioactivity accumulation in the brain tissue section of the temporal lobe ([1]; AD patient autopsied brain section, temporal lobe, 370 kBq/mL, 2 hours room temperature): exhibited radioactivity accumulation in only the brain tissue section of the temporal lobe | nonspecific binding to the brain white matter ([1]; AD patient autopsied brain sections): low | visualization of tau (autoradiography compared with tau and Aβ immunostaining) ([1]; AD patient temporal lobe section, adjacent sections immunostained (AT8, BC05)): clearly visualizes tau accumulated in the brain with AD | clearance from the brain [2]: rapid clearance from the brain | transfer to the brain early after administration [2]: high transfer to the brain | radioactivity distribution, Blood ([2]; 2 min after administration): 5.41(0.40) % ID/g | radioactivity distribution, Brain ([2]; 2 min after administration): 4.30(0.41) % ID/g | radioactivity distribution, Heart ([2]; 2 min after administration): 5.17(0.27) % ID/g | radioactivity distribution, Intestine ([2]; 2 min after administration): 2.94(0.15) % ID/g | radioactivity distribution, Kidney ([2]; 2 min after administration): 8.66(0.73) % ID/g | radioactivity distribution, Liver ([2]; 2 min after administration): 17.8(3.98) % ID/g | radioactivity distribution, Lung ([2]; 2 min after administration): 6.09(0.34) % ID/g | radioactivity distribution, Pancreas ([2]; 2 min after administration): 4.38(0.30) % ID/g | radioactivity distribution, Spleen ([2]; 2 min after administration): 3.60(1.10) % ID/g | radioactivity distribution, Stomach ([2]; 2 min after administration): 2.30(0.33) % ID | radioactivity distribution, Thyroid gland ([2]; 2 min after administration): 0.10(0.05) % ID | radioactivity distribution, Blood ([2]; 10 min after administration): 3.39(0.12) % ID/g | radioactivity distribution, Brain ([2]; 10 min after administration): 0.71(0.14) % ID/g | radioactivity distribution, Heart ([2]; 10 min after administration): 1.94(0.18) % ID/g | radioactivity distribution, Intestine ([2]; 10 min after administration): 8.99(1.43) % ID/g | radioactivity distribution, Kidney ([2]; 10 min after administration): 7.38(1.46) % ID/g | radioactivity distribution, Liver ([2]; 10 min after administration): 16.2(1.80) % ID/g | radioactivity distribution, Lung ([2]; 10 min after administration): 3.33(0.24) % ID/g | radioactivity distribution, Pancreas ([2]; 10 min after administration): 1.59(0.18) % ID/g | radioactivity distribution, Spleen ([2]; 10 min after administration): 3.16(0.18) % ID/g | radioactivity distribution, Stomach ([2]; 10 min after administration): 5.47(0.88) % ID | radioactivity distribution, Thyroid gland ([2]; 10 min after administration): 0.04(0.02) % ID | radioactivity distribution, Blood ([2]; 30 min after administration): 2.24(0.27) % ID/g | radioactivity distribution, Brain ([2]; 30 min after administration): 0.17(0.02) % ID/g | radioactivity distribution, Heart ([2]; 30 min after administration): 0.99(0.08) % ID/g | radioactivity distribution, Intestine ([2]; 30 min after administration): 16.8(4.30) % ID/g | radioactivity distribution, Kidney ([2]; 30 min after administration): 5.74(2.30) % ID/g | radioactivity distribution, Liver ([2]; 30 min after administration): 7.25(1.28) % ID/g | radioactivity distribution, Lung ([2]; 30 min after administration): 1.76(0.11) % ID/g | radioactivity distribution, Pancreas ([2]; 30 min after administration): 0.86(0.22) % ID/g | radioactivity distribution, Spleen ([2]; 30 min after administration): 1.07(0.08) % ID/g | radioactivity distribution, Stomach ([2]; 30 min after administration): 6.62(1.28) % ID | radioactivity distribution, Thyroid gland ([2]; 30 min after administration): 0.01(0.00) % ID | radioactivity distribution, Blood ([2]; 60 min after administration): 1.27(0.15) % ID/g | radioactivity distribution, Brain ([2]; 60 min after administration): 0.08(0.03) % ID/g | radioactivity distribution, Heart ([2]; 60 min after administration): 0.52(0.08) % ID/g | radioactivity distribution, Intestine ([2]; 60 min after administration): 20.1(4.03) % ID/g | radioactivity distribution, Kidney ([2]; 60 min after administration): 2.20(1.20) % ID/g | radioactivity distribution, Liver ([2]; 60 min after administration): 4.61(0.35) % ID/g | radioactivity distribution, Lung ([2]; 60 min after administration): 1.21(0.30) % ID/g | radioactivity distribution, Pancreas ([2]; 60 min after administration): 0.53(0.13) % ID/g | radioactivity distribution, Spleen ([2]; 60 min after administration): 0.63(0.10) % ID/g | radioactivity distribution, Stomach ([2]; 60 min after administration): 5.34(1.23) % ID | radioactivity distribution, Thyroid gland ([2]; 60 min after administration): 0.01(0.00) % ID

Reference: patent US10081630B2, “Radioactive halogen-labeled pyrido [1,2-A] benzimidazole derivative compound” (KYOTO UNIVERSITY, priority 2015, dated 2018)
